In brackets after ≈: the same amount, converted by molar mass. Read-outs that look alike come from different tables or passages of the source.
Key:
M. luteus ATCC 10240 [1] = experiment: disc diffusion method; assay type: cell-based, Micrococcus luteus; conditions: 5 µg/9 mm disc
[2] = tested on: S. epidermidis ATCC 12228; experiment: MIC, twofold serial agar dilution; assay type: cell-based; conditions: Staphylococcus epidermidis, ATCC12228, 18 h, 35 °C, read-out: minimal inhibitory concentrations (MIC)
S. aureus ATCC 29213 [3] = experiment: MIC, twofold serial agar dilution; assay type: cell-based; conditions: Staphylococcus aureus, ATCC29213, 18 h, 35 °C, read-out: minimal inhibitory concentrations (MIC)
S. aureus ATCC 25923 [4] = experiment: disc diffusion method; assay type: cell-based, Staphylococcus aureus; conditions: 5 µg/9 mm disc
M. luteus ATCC 9341 [5] = experiment: disc diffusion method; assay type: cell-based, Micrococcus luteus; conditions: 5 µg/9 mm disc
S. aureus NCTC 4163 [6] = experiment: disc diffusion method; assay type: cell-based, Staphylococcus aureus; conditions: 5 µg/9 mm disc
B. subtilis ATCC 6633 [7] = experiment: MIC, twofold serial agar dilution; assay type: cell-based; conditions: Bacillus subtilis, ATCC6633, 18 h, 35 °C, read-out: minimal inhibitory concentrations (MIC)
S. aureus ATCC 25923 [8] = experiment: MIC, twofold serial agar dilution; assay type: cell-based; conditions: Staphylococcus aureus, ATCC25923, 18 h, 35 °C, read-out: minimal inhibitory concentrations (MIC)
[9] = tested on: methicillin-resistant strains of S. aureus (MRSA); experiment: MIC against hospital strains; conditions: Staphylococcus aureus
M. luteus ATCC 10240 [10] = experiment: MIC, twofold serial agar dilution; assay type: cell-based; conditions: Micrococcus luteus, ATCC10240, 18 h, 35 °C, read-out: minimal inhibitory concentrations (MIC)
S. aureus ATCC 29213 [11] = experiment: disc diffusion method; assay type: cell-based, Staphylococcus aureus; conditions: 5 µg/9 mm disc
B. subtilis ATCC 6633 [12] = experiment: disc diffusion method; assay type: cell-based, Bacillus subtilis; conditions: 5 µg/9 mm disc
S. epidermidis (MRSE) = experiment: MIC against hospital strains; conditions: Staphylococcus epidermidis
B. cereus ATCC 11778 [13] = experiment: MIC, twofold serial agar dilution; assay type: cell-based; conditions: Bacillus cereus, ATCC11778, 18 h, 35 °C, read-out: minimal inhibitory concentrations (MIC)
[14] = tested on: S. epidermidis ATCC 12228; experiment: disc diffusion method; assay type: cell-based, Staphylococcus epidermidis; conditions: 5 µg/9 mm disc
B. cereus ATCC 11778 [15] = experiment: disc diffusion method; assay type: cell-based, Bacillus cereus; conditions: 5 µg/9 mm disc
S. aureus ATCC 6538 [16] = experiment: MIC, twofold serial agar dilution; assay type: cell-based; conditions: Staphylococcus aureus, ATCC6538, 18 h, 35 °C, read-out: minimal inhibitory concentrations (MIC)
M. luteus ATCC 9341 [17] = experiment: MIC, twofold serial agar dilution; assay type: cell-based; conditions: Micrococcus luteus, ATCC9341, 18 h, 35 °C, read-out: minimal inhibitory concentrations (MIC)
[18] = tested on: hospital methicillin-susceptible strains of S. aureus (MSSA); experiment: MIC against hospital strains; conditions: Staphylococcus aureus
S. aureus NCTC 4163 [19] = experiment: MIC, twofold serial agar dilution; assay type: cell-based; conditions: Staphylococcus aureus, NCTC4163, 18 h, 35 °C, read-out: minimal inhibitory concentrations (MIC)
[20] = target: S. aureus topoisomerase IV (Staphylococcus aureus, UniProt P0C1S7+P0C1U9); conditions: at 32 µg/mL
Chain of S. aureus topoisomerase IV (P0C1U9 whole entry, the tested form may be a part): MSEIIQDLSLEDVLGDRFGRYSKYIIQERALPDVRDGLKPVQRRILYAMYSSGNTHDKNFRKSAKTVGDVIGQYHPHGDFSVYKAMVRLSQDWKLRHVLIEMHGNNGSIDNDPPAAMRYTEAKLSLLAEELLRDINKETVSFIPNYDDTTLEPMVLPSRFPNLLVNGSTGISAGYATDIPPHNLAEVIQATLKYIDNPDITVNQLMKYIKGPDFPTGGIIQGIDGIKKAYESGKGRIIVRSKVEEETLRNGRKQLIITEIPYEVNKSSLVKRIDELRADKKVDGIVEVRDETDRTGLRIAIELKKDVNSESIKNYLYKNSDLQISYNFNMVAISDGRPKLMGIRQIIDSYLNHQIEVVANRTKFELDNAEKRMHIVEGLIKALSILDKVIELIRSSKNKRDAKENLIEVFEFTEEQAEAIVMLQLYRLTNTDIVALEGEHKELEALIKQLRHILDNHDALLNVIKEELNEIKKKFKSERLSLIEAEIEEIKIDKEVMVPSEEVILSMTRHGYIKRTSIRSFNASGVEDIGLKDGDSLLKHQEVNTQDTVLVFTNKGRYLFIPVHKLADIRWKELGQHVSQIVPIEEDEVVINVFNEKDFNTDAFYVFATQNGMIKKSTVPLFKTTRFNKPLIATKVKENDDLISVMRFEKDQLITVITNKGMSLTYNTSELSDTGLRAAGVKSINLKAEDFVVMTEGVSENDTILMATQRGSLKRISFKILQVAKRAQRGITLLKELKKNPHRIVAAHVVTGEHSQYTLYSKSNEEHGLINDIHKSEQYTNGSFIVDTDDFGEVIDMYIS
Chain of S. aureus topoisomerase IV (P0C1S7 whole entry, the tested form may be a part): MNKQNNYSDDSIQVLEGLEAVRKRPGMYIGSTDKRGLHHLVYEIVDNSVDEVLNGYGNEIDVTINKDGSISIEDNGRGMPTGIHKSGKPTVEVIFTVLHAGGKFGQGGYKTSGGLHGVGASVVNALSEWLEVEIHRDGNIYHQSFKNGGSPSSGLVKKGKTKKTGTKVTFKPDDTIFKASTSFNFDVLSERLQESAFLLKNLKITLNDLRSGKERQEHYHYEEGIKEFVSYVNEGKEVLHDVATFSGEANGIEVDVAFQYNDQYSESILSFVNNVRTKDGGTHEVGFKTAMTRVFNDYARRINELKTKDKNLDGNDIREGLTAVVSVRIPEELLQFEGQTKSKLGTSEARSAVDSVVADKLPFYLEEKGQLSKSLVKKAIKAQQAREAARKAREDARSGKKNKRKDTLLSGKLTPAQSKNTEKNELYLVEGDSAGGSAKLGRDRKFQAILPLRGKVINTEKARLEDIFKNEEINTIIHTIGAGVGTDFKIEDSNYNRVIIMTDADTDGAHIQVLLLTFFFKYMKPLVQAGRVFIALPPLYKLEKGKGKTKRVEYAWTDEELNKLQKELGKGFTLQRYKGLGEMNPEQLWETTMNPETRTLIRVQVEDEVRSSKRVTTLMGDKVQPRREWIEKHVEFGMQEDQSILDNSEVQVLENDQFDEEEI

S. aureus ATCC 6538 [21] = experiment: disc diffusion method; assay type: cell-based, Staphylococcus aureus; conditions: 5 µg/9 mm disc
in vitro [22] = conditions: cattle (Bos taurus)
[23] = tested on: HIV-1 A17 (K103N + Y181C mutant); experiment: microbe, parasite or virus in culture; assay type: cell-based, Human Immunodeficiency Virus type-1
YFV = experiment: microbe, parasite or virus in culture; assay type: cell-based; conditions: Yellow fever virus, BHK, read-out: YFV EC50
[24] = tested on: HIV-1 N119 (Y181C mutant); experiment: microbe, parasite or virus in culture; assay type: cell-based, Human Immunodeficiency Virus type-1; conditions: Human immunodeficiency virus 1, MT4, read-out: EC50 N119
RSV = experiment: microbe, parasite or virus in culture; assay type: cell-based, human respiratory syncytial virus; conditions: human respiratory syncytial virus, Vero 76, read-out: RSV EC50
CV-B5 = experiment: microbe, parasite or virus in culture; assay type: cell-based, coxsackievirus B5; conditions: Enterovirus B, CVB5, Vero 76, read-out: CV-B5 EC50
in vitro [25] = conditions: African green monkey (Cercopithecus aethiops)
in vitro [26] = conditions: human
[27] = tested on: HIV-1 MDR strain (74V, 41L, 106A, 215Y); experiment: microbe, parasite or virus in culture; assay type: cell-based, Human Immunodeficiency Virus type-1
VSV = experiment: microbe, parasite or virus in culture; assay type: cell-based; conditions: Vesicular stomatitis virus, Vero 76, read-out: VSV EC50
BVDV = experiment: microbe, parasite or virus in culture; assay type: cell-based, bovine viral diarrhoea virus; conditions: Bovine viral diarrhea virus isolates and strains, MDBK, in Bos taurus, read-out: BVDV EC50
VV = experiment: microbe, parasite or virus in culture; assay type: cell-based; conditions: Orthopoxvirus vaccinia, Vero 76, read-out: VV EC50
[28] = tested on: HIV-1 EFV^R (K103R + V179D + P225H mutant); experiment: microbe, parasite or virus in culture; assay type: cell-based, Human Immunodeficiency Virus type-1; conditions: Human immunodeficiency virus 1, MT4, 96 h, read-out: EC50 EFV^R
in vitro [29] = conditions: Syrian hamster (Mesocricetus auratus)
HSV-1 = experiment: microbe, parasite or virus in culture; assay type: cell-based, human herpes 1; conditions: Human alphaherpesvirus 1, Vero 76, read-out: HSV-1 EC50
Reo-1 = experiment: microbe, parasite or virus in culture; assay type: cell-based, reovirus type-1; conditions: Reovirus sp., BHK, read-out: Reo-1 EC50
HIV-1 = experiment: microbe, parasite or virus in culture
[30] = tested on: HIV-1 AZT^R strain (67N, 70R, 215F, 219Q); experiment: microbe, parasite or virus in culture; assay type: cell-based, Human Immunodeficiency Virus type-1
Sb-1 = experiment: microbe, parasite or virus in culture; assay type: cell-based, poliovirus type-1; conditions: Enterovirus C, Vero 76, read-out: Sb-1 EC50

With `O=C(O)c1cn(C2CC2)c2cc(N3CCNCC3)c(F)cc2c1=O` [Ciprofloxacin, reference compound] the “diameter of growth inhibitory zone (GIZ)” value (M. luteus ATCC 10240 [1]) was 25 mm, the MIC [2] was 0.25 µg/mL (≈ 0.754 µM) and the MIC (S. aureus ATCC 29213 [3]) was 0.5 µg/mL (≈ 1.51 µM). For the same molecule, the “diameter of growth inhibitory zone (GIZ)” value (S. aureus ATCC 25923 [4]) was 26 mm, the “diameter of growth inhibitory zone (GIZ)” value (M. luteus ATCC 9341 [5]) was 26 mm and the “diameter of growth inhibitory zone (GIZ)” value (S. aureus NCTC 4163 [6]) was 26 mm. The MIC (B. subtilis ATCC 6633 [7]) was < 0.12 µg/mL, the MIC (S. aureus ATCC 25923 [8]) was 0.5 µg/mL (≈ 1.51 µM) and the MIC ([9]; hospital S. aureus MRSA strain 389/10) was 25 µg/mL (≈ 75.4 µM). It also gave an MIC ([9]; hospital S. aureus MRSA strain 390/10) of 100 µg/mL (≈ 302 µM), an MIC ([9]; hospital S. aureus MRSA strain 391/10) of 100 µg/mL (≈ 302 µM) and an MIC ([9]; hospital S. aureus MRSA strain 392/10) of 100 µg/mL (≈ 302 µM). It also gave an MIC ([9]; hospital S. aureus MRSA strain 393/10) of 50 µg/mL (≈ 151 µM), an MIC ([9]; hospital S. aureus MRSA strain 394/10) of 25 µg/mL (≈ 75.4 µM) and an MIC ([9]; hospital S. aureus MRSA strain 399/10) of 200 µg/mL (≈ 604 µM). It also gave an MIC ([9]; hospital S. aureus MRSA strain 450/11) of 100 µg/mL (≈ 302 µM), an MIC ([9]; hospital S. aureus MRSA strain 451/11) of 100 µg/mL (≈ 302 µM) and an MIC ([9]; hospital S. aureus MRSA strain 452/11) of 200 µg/mL (≈ 604 µM). The MIC (M. luteus ATCC 10240 [10]) was 1 µg/mL (≈ 3.02 µM), the “diameter of growth inhibitory zone (GIZ)” value (S. aureus ATCC 29213 [11]) was 22 mm and the “diameter of growth inhibitory zone (GIZ)” value (B. subtilis ATCC 6633 [12]) was 38 mm. For the same molecule, the MIC (S. epidermidis (MRSE)) was 6.25 µg/mL (≈ 18.9 µM), the MIC (S. epidermidis (MRSE); hospital S. epidermidis MRSE strain 430/11) was 0.8 µg/mL (≈ 2.41 µM) and the MIC (S. epidermidis (MRSE); hospital S. epidermidis MRSE strain 432/11) was 50 µg/mL (≈ 151 µM). The MIC (S. epidermidis (MRSE); hospital S. epidermidis MRSE strain 433/11) was 50 µg/mL (≈ 151 µM), the MIC (S. epidermidis (MRSE); hospital S. epidermidis MRSE strain 434/11) was 50 µg/mL (≈ 151 µM) and the MIC (S. epidermidis (MRSE); hospital S. epidermidis MRSE strain 435/11) was 0.4 µg/mL (≈ 1.21 µM). For the same molecule, the MIC (S. epidermidis (MRSE); hospital S. epidermidis MRSE strain 436/11) was 0.4 µg/mL (≈ 1.21 µM), the MIC (S. epidermidis (MRSE); hospital S. epidermidis MRSE strain 437/11) was 0.8 µg/mL (≈ 2.41 µM) and the MIC (S. epidermidis (MRSE); hospital S. epidermidis MRSE strain 438/11) was 0.4 µg/mL (≈ 1.21 µM). The MIC (S. epidermidis (MRSE); hospital S. epidermidis MRSE strain 439/11) was 50 µg/mL (≈ 151 µM), the MIC (B. cereus ATCC 11778 [13]) was 0.25 µg/mL (≈ 0.754 µM) and the “diameter of growth inhibitory zone (GIZ)” value [14] was 30 mm. The “diameter of growth inhibitory zone (GIZ)” value (B. cereus ATCC 11778 [15]) was 26 mm, the MIC (S. aureus ATCC 6538 [16]) was 0.25 µg/mL (≈ 0.754 µM) and the MIC (M. luteus ATCC 9341 [17]) was 0.25 µg/mL (≈ 0.754 µM). The MIC ([18]; hospital S. aureus MSSA strain 440/11) was 0.4 µg/mL (≈ 1.21 µM), the MIC ([18]; hospital S. aureus MSSA strain 441/11) was 0.4 µg/mL (≈ 1.21 µM) and the MIC ([18]; hospital S. aureus MSSA strain 442/11) was 0.4 µg/mL (≈ 1.21 µM). It also gave an MIC ([18]; hospital S. aureus MSSA strain 443/11) of 0.4 µg/mL (≈ 1.21 µM), an MIC ([18]; hospital S. aureus MSSA strain 444/11) of 0.8 µg/mL (≈ 2.41 µM) and an MIC ([18]; hospital S. aureus MSSA strain 445/11) of 0.4 µg/mL (≈ 1.21 µM). It also gave an MIC ([18]; hospital S. aureus MSSA strain 446/11) of 0.4 µg/mL (≈ 1.21 µM), an MIC ([18]; hospital S. aureus MSSA strain 447/11) of 0.8 µg/mL (≈ 2.41 µM) and an MIC ([18]; hospital S. aureus MSSA strain 448/11) of 0.8 µg/mL (≈ 2.41 µM). The MIC ([18]; hospital S. aureus MSSA strain 449/11) was 0.4 µg/mL (≈ 1.21 µM), the MIC (S. aureus NCTC 4163 [19]) was 0.25 µg/mL (≈ 0.754 µM) and the “inhibition of decatenation activity of S. aureus topoisomerase IV” value [20] was “almost completely inhibited”. For the same molecule, the “diameter of growth inhibitory zone (GIZ)” value (S. aureus ATCC 6538 [21]) was 28 mm.

In the case of `S=C(NCCc1c[nH]c2ccccc12)Nc1ccc(Br)cc1` [Compound 8, 1-(2-(1H-Indol-3-yl)ethyl)-3-(4-bromophenyl)thiourea], the CC50 (in vitro [22]) is reported as 52 µM, the “activity against A17 strain compared with wild type (in words)” value [23] is reported as “comparable with those of HIV-1 wild-type” and the EC50 ([23]; Human immunodeficiency virus 1, MT4, 96 h, read-out: EC50 A17) is reported as 12 ± 1.5 µM. The EC50 (YFV) was > 10 µM, the EC50 [24] was > 45 µM and the EC50 (RSV) was > 13 µM. The EC50 (CV-B5) was > 13 µM, the CC50 (in vitro [25]) was 13 µM and the CC50 (in vitro [26]) was 45 µM. For the same molecule, the melting point was 156 to 158 °C, the “activity against MDR strain compared with wild type (in words)” value [27] was “comparable with those of HIV-1 wild-type” and the EC50 ([27]; Human immunodeficiency virus 1, MT4, read-out: EC50 MDR) was 9 ± 0.8 µM. For the same molecule, the EC50 (VSV) was > 13 µM, the EC50 (BVDV) was > 52 µM and the EC50 (VV) was > 13 µM. The EC50 [28] was > 45 µM, the CC50 (in vitro [29]) was 10 µM and the EC50 (HSV-1) was > 13 µM. For the same molecule, the EC50 (Reo-1) was > 10 µM, the EC50 (HIV-1; Human immunodeficiency virus 1, MT4, read-out: EC50 HIV-1) was 8.7 ± 0.8 µM and the EC50 (HIV-1; Human immunodeficiency virus 1, MT4, read-out: HIV-1 EC50) was 8.7 ± 0.4 µM. The “activity against AZT^R strain compared with wild type (in words)” value [30] was “comparable with those of HIV-1 wild-type”, the EC50 ([30]; Human immunodeficiency virus 1, MT4, read-out: EC50 AZT^R) was 9 ± 1 µM and the EC50 (Sb-1) was > 13 µM.

— article PMC6222422, “Synthesis and Biological Evaluation of Novel Indole-Derived Thioureas” (Molecules : A Journal of Synthetic Chemistry and Natural …, 2018)
